Assays:
[1] = target: T1, Human tumor necrosis factor-alpha (TNF-α) (Homo sapiens, UniProt P01375); assay: Yield of peptide-mRNA complexes presenting TNF-α-DW, recovered with biotinylated TNF-α on streptavidin beads and quantified by real-time PCR; conditions: peptide aptamer TNF-α-DW
T1 construct: made in house; host or cells: E. coli (co-expressed with biotin ligase BirA)
Protocol: In the case where an mRNA is preliminarily prepared by transcription reaction and then translated into a peptide and the resulting peptide is fused to a linker, a peptide-mRNA complex was prepared by the following procedure. First, 4 mM sodium acetate, pH 5.0 and mRNA were mixed in 1:3, and the mixture was heated on a thermoblock at 95° C. for 1 minute and then allowed to stand at room temperature for 5 min. A 25 μM linker solution dissolved in 1 mM sodium acetate was added and the mixture was allowed to stand for 10 minutes to form an mRNA-linker complex. To this were added the other components of the translation system and the mixture was incubated in a constant-temperature water bath (NT-202D, Nissin Scientific Corporation) at 37° C. for 30 minutes, then at room temperature for 12 min, and 0.1 M EDTA (ethylenediaminetetraacetic acid, molecular biology grade, NACALAI TESQUE, INC.) adjusted to pH 7.5 was added at a final concentration of 20 mM, and the mixture was further incubated in the constant-temperature water bath at 37° C. for 30 minutes.
In the case where a cDNA is added to a reaction solution and transcription, translation and fusion to a linker are performed in this reaction solution, a peptide-mRNA complex was prepared by the following procedure. […]

TNF-α = target: T2, TNF-α (Homo sapiens, UniProt P01375); assay: Verification of mapping: recovery from a 100:1 EMP1SS / TNF-α-DW mixture by TNF-α pull-down, PCR and gel electrophoresis; type: binding; conditions: an21-Phe linker; mRNA or cDNA input; FIG. 6
T2 construct: made in house; host or cells: E. coli (co-expressed with biotin ligase BirA)
Protocol: This mixture was used to perform experiments similar to those described above, and the recovered DNA was amplified by PCR under the following conditions. That is, 20 μL of a reaction solution containing Taq polymerase and a test sample solution in PCR (taq-) buffer was prepared and reacted by temperature cycling of 30 cycles of {94° C. 40 sec, 61° C. 40 sec, 72° C. 40 sec} (with a slope of 0.5° C./sec from 61° C. to 72° C.) using a thermal cycler. 2.5 μL of the reaction product solution was separated by electrophoresis using a gel consisting of TAE (40 mM Tris-acetate, 1 mM EDTA) and 3% agarose (low electroendosmosis, NACALAI TESQUE, INC.), and electrophoretograms were obtained under a transilluminator after staining with ethidium bromide.
A band derived from the mRNA encoding TNF-α-DW is observed at the position of about 90 bp, while a band derived from the mRNA encoding the control EMP1SS is observed at the position of about 150 bp. When the an21-ACCA linker containing no peptidyl acceptor was used, only a band derived from the mRNA of EMP1SS was observed, reflecting the molar ratio of the two types of cDNA in the initial mixture.

T2 sequence (P01375 with tags, fused parts or gaps): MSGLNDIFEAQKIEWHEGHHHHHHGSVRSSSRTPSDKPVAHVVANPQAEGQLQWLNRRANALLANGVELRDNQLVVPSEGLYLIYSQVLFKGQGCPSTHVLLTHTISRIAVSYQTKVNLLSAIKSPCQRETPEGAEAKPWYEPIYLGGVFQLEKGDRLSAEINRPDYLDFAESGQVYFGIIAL
T1 sequence (P01375 with tags, fused parts or gaps): as above

| Substance | yield of peptide-mRNA complexes ([1]; cDNA added to the reaction solution (one-pot transcription/translation), FIG. 5) [%] | yield of peptide-mRNA complexes ([1]; mRNA added to the translation reaction solution, FIG. 4) [%] | binding of the presented peptide to the target protein (TNF-α) |
| --- | --- | --- | --- |
| 5′-CCCGCCTCCCGCCCCCCGTCC-[SPC18]5-A*-C*-C*-A*-3′ [an21-ACCA] | 0.007 | 0.015 | – |
| XAAGGTYSSHFGPLTWVSKPQGGAA, wherein X is Ac-D-Trp [EMP1SS, reference compound] | – | – | does not bind to the target |
| XQRLHCLYLKH (X: Ac-D-Trp) [TNF-α-DW] | – | – | binds to the target protein |
